According to patent US5599815A, “Antipsychotic benzoisothiazolyl piperazine derivatives” (Meiji Seika Kabushiki Kaisha, priority 1993, dated 1997):
Where two headings read alike, the source gives them in different places.

How the values were obtained:
[1] = test system: hyper locomotion induced by methamphetamine in mice; assay: Anti-methamphetamine effect (antipsychotic activity): suppression of hyper locomotion induced by methamphetamine in mice; type: in vivo, mice (male ddY); settings: ip; for ED50: Mus musculus, read-out: Anti-methamphetamine effect ED50
Method: Antipsychotic activity was evaluated on the basis of the suppressive activity on the stimulation of hyper locomotion induced by methamphetamine in mice. Male ddY mice having a weight of 25-35 g were divided into groups consisting of 3-6 animals. The mouse was subcutaneously administered with methamphetamine (2 mg/kg) fifteen minutes before the compound of the present invention was intraperitoneally administered. After further fifteen minutes, the animal was then placed in an apparatus to measure the locomotion for thirty minutes. (MUROMACHI KIKAI, ANIMEX AUTO MK-110) The effects of haloperidol and chlorpromazine were also evaluated as controls.

[2] = Cataleptogenic activity (extrapyramidal side effect): catalepsy provoking effect in mice; settings: mouse, in vivo, ip
Method: (§1) The extrapyramidal activity was evaluated on the basis of the catalepsy provoking effect as a representative pharmacological evaluation method of the extrapyramidal effect. Male ddY mice having a body weight of 25-35 g which were divided into groups consisting of 3-6 animals were subjected to the test. The compound of the present invention was administered intraperitoneally to observe catalepsy after 20, 30 and 40 minutes, respectively. Catalepsy was judged as positive in such cases that a mouse whose front paw was compulsorily hung up on an iron bar having a diameter of 1 mm and horizontally laid at a height of 3 cm remained in such a strained posture for more than 30 seconds.

[3] = test system: catalepsy in mice; assay: as above; settings: ip
Method: as §1

[4] = male ddY mice, methamphetamine 2 mg/kg sc 15 min before compound, locomotion measured for 30 min

SMILES	ED50 [1] [mg/kg]	anti-methamphetamine activity, that is the anti-psychotic activity (in words) ([1]; male ddY mice)	TD50 [2] [mg/kg]	catalepsy provoking effect / extrapyramidal side effect (in words) ([3]; male ddY mice)	ED50 [1, 4] [mg/kg]	catalepsy provoking effect / extrapyramidal side effect (in words) ([3]; mouse, in vivo)
CN(C)CCCN1c2ccccc2Sc2ccc(Cl)cc21 [Chlorpromazine, chlorpromazine]	1.05	have the anti-methamphetamine activity	6.2	strong catalepsy provoking effect	–	–
O=c1ccc2ccccc2n1CCCN1CCN(c2nsc3ccccc23)CC1 [Example 5, 1-[4-[4-(1,2-benzisothiazol-3-yl)-1-piperazinyl]propyl]-2(1H)-quinolinone]	–	have the anti-methamphetamine activity	83.3	–	0.92	very weak extrapyramidal side effect
c1ccc2c(N3CCN(CCCCn4c5ccccc5c5ccccc54)CC3)nsc2c1 [Example 2, 9-[4-[4-(1,2-benzisothiazol-3-yl)-1-piperazinyl]butyl]carbazole]	–	have the anti-methamphetamine activity	> 100	–	1.15	very weak extrapyramidal side effect
O=C(CCCN1CCC(O)(c2ccc(Cl)cc2)CC1)c1ccc(F)cc1 [Haloperidol, haloperidol]	0.16	have the anti-methamphetamine activity	1.3	strong catalepsy provoking effect	–	–
